# Columns and labels:
# [1] = target: human M2 muscarinic acetylcholine receptor (Homo sapiens (Human), UniProt P08172); experiment: R-SAT (Receptor Selection and Amplification) assay, M2; type: cell-based; settings: for M2 PEC50 AVG: R-SAT, NIH-3T3 cells; for Emax: read-out: M2 EFF % AVG
# Procedure: (§1) Briefly, NIH-3T3 cells were grown in 96-well tissue culture plates to 70% to 80% confluence. Cells were transfected with plasmid DNAs using Superfect Reagent (QIAGEN, Valencia, Calif.) as per the manufacturer's protocols. […] Cells were then grown in a humidified atmosphere with 5% ambient CO2 for 4 to 6 days. Media were then removed from the plates, and beta-galactosidase activity was measured by the addition of o-nitrophenyl-D-galactopyranoside (in phosphate-buffered saline with 5% NP-40 detergent). […] All data represent the mean of three wells and were analyzed using the computer program Excel Fit, and EC50 determinations were made using least-squares fit analysis with GraphPad Software Inc. (San Diego, Calif.) software.
# [2] = target: human M3 muscarinic acetylcholine receptor (Homo sapiens (Human), UniProt P20309); experiment: R-SAT (Receptor Selection and Amplification) assay, M3; type: cell-based; settings: for M3 PEC50 AVG: R-SAT, NIH-3T3 cells; for Emax: read-out: M3 EFF % AVG
# Procedure: as §1
# M1 muscarinic receptor = M1 muscarinic receptor (Homo sapiens (Human), UniProt P11229); experiment: M1 GTPγS binding assay; type: biochemical; settings: for M1 GTPγS PEC50 AVG: GTPγS binding; for Emax: read-out: M1 GTPγS EFF % AVG;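 as to Emax: efficacy relative to carbachol as 100%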
# [3] = target: human M1 muscarinic acetylcholine receptor (Homo sapiens (Human), UniProt P11229); experiment: R-SAT (Receptor Selection and Amplification) assay, M1; type: cell-based; settings: for Emax: percent efficacy vs carbachol = 100 percent, read-out: M1 EFF % AVG
# Procedure: as §1
# Sequence of human M2 muscarinic acetylcholine receptor (P08172 whole entry): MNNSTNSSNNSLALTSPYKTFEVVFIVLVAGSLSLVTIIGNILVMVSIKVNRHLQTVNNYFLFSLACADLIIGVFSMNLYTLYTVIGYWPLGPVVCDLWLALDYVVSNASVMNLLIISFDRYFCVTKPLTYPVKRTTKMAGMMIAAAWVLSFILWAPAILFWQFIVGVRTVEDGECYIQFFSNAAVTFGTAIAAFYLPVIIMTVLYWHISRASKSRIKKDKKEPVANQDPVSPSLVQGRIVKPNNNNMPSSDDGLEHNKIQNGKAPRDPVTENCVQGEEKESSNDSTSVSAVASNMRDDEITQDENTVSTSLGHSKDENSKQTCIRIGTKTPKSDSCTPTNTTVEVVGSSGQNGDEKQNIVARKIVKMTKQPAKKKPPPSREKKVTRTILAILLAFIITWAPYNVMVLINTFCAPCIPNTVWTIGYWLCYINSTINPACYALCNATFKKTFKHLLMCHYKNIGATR
# Sequence of human M3 muscarinic acetylcholine receptor (P20309 whole entry): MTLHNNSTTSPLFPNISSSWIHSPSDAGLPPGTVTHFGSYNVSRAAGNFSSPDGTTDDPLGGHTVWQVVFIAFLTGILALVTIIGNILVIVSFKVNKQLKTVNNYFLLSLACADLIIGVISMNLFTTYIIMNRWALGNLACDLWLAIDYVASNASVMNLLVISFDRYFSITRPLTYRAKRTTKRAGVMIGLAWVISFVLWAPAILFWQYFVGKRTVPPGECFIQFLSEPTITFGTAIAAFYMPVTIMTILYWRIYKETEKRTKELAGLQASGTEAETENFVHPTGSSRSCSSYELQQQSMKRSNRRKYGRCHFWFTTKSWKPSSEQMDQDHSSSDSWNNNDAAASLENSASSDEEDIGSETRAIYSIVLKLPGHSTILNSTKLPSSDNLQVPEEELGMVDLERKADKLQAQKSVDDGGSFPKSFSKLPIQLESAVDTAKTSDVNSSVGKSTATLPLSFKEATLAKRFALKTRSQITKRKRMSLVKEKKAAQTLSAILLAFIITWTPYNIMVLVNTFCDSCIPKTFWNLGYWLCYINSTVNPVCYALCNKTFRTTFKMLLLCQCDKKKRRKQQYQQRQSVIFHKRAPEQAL
# Sequence of human M1 muscarinic acetylcholine receptor (P11229 whole entry): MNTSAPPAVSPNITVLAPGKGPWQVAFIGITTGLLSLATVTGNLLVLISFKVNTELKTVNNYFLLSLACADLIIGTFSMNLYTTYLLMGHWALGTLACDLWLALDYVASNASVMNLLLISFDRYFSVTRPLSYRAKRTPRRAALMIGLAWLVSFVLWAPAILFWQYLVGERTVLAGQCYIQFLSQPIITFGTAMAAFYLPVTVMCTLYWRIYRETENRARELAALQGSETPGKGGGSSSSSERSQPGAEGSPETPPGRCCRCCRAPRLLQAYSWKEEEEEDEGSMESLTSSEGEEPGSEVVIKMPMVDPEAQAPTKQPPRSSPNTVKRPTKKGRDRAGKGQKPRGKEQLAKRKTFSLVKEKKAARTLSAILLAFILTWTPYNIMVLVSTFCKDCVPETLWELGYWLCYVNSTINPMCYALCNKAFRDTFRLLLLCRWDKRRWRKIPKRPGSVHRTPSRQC
# Sequence of M1 muscarinic receptor (P11229 whole entry): as above
Structure (SMILES),M2 PEC50 AVG [1],Emax [1],M3 PEC50 AVG [2],Emax [2],M1 GTPγS PEC50 AVG (M1 muscarinic receptor),Emax (M1 muscarinic receptor),M1 PEC50 AVG ([3]; NIH-3T3 cells),Emax [3],EC50 (M1 muscarinic receptor),"EC50 ([3]; NIH-3T3 cells, read-out: M1 PEC50 AVG (converted))"
"Cc1ccc2cnn(C[C@H](C)CN3[C@@H]4CC[C@H]3C[C@@H](OCC3CC3)C4)c2c1 [Compound 304, 1-((R)-3-(3-(Cyclopropylmethoxy)-8-aza-bicyclo[3.2.1]octan-8-yl)-2-methylpropyl)-6-methyl-1H-indazole]",7.6,108%,7.4,9%,8.3,67%,8.9,110%,–,–
C[C@H](CN1[C@@H]2CC[C@H]1C[C@@H](OCC1CC1)C2)Cn1ncc2ccc(CO)cc21 [Compound 310s],–,27%,–,6%,–,62%,–,96%,631 nM,31.6 nM
"Cc1ccc2c(cnn2C[C@H](C)CN2[C@@H]3CC[C@H]2C[C@@H](OCC2CC2)C3)c1 [Compound 321, 1-((R)-3-(3-(cyclopropylmethoxy)-8-aza-bicyclo[3.2.1]octan-8-yl)-2-methylpropyl)-5-methyl-1H-indazole]",8.1,19%,–,3%,–,56%,7.9,75%,63.1 nM,–
"C[C@H](CN1[C@@H]2CC[C@H]1C[C@@H](OC1CCCC1)C2)Cn1ncc2ccccc21 [Compound 314s, 1-((R)-3-((1R,3R,58)-3-(cyclopentyloxy)-8-azabicyclo[3.2.1]octan-8-yl)-2-methylpropyl)-1H-indazole]",7.3,74%,–,8%,–,48%,8.4,104%,25.1 nM,–
"C=CCO[C@H]1C[C@H]2CC[C@@H](C1)N2C[C@@H](C)Cn1ncc2ccc(F)cc21 [Compound 308, 1-((R)-3-(3-(Allyloxy)-8-aza-bicyclo[3.2.1]octan-8-yl)-2-methylpropyl)-6-fluoro-1H-indazole]",7.4,152%,6.3,18%,7.1,66%,8.9,131%,–,–
"Cc1cccc2cnn(C[C@H](C)CN3[C@@H]4CC[C@H]3C[C@@H](OCC3CC3)C4)c12 [Compound 317, 1-((R)-3-(3-(cyclopropylmethoxy)-8-aza-bicyclo[3.2.1]octan-8-yl)-2-methylpropyl)-7-methyl-1H-indazole]",6.9,46%,–,2%,–,85%,7.6,81%,100 nM,–
COc1ccc2cnn(C[C@H](C)CN3[C@@H]4CC[C@H]3C[C@@H](OCC3CC3)C4)c2c1 [Compound 311],–,65%,–,2%,–,55%,–,120%,50.1 nM,–
"CCOCC[C@H]1C[C@H]2CC[C@@H](C1)N2C[C@@H](C)Cn1ncc2ccc(C)cc21 [Compound 324, 1-((R)-3-((1R,3R,5S)-3-(2-ethoxyethyl)-8-azabicyclo[3.2.1]octan-8-yl)-2-methylpropyl)-6-methyl-1H-indazole]",7.9,45%,–,17%,–,31%,9.1,82%,6.31 nM,–
"C[C@H](CN1[C@@H]2CC[C@H]1C[C@@H](OCC1CCC1)C2)Cn1ncc2ccccc21 [Compound 315, 1-((R)-3-(3-(cyclobutylmethoxy)-8-aza-bicyclo[3.2.1]octan-8-yl)-2-methylpropyl)-1H-indazole]",7.3,47%,–,5%,–,36%,8.1,100%,50.1 nM,–
